Tests used:
[1] = Acid damage to Ribose loaded into 1% cross-linked resin with boiling water; type: physicochemical; settings: 5.9 grams Ribose
[2] = ingested dose, human body; cited from earlier work

Compound	Fate of Ribose within the resin matrix ([1]; 2 grams 1% cross-linked sulfonated resin, 10 grams water preheated to boiling)	Fate of Ribose within the resin matrix ([1]; 2 grams sulfonated resin ion exchanged with Li or K salt, 10 grams water)	Dose typically associated with side effects (diarrhea, gas, flatulence, nausea, stomach cramps) [2]
O=C[C@H](O)[C@H](O)[C@H](O)CO [Ribose, D-Ribose]	destroyed	active and useful	–
CN(CC(=O)O)C(=N)N [creatine, Creatine]	–	–	over 5 grams
